Reference: ChEMBL document CHEMBL5505986, “Design, synthesis and biological evaluation of thiazolyl-halogenated pyrroles or pyrazoles as novel antibacterial and antibiofilm agents” (Eur J Med Chem, 2024)
In brackets after ≈: the same amount, converted by molar mass. Activity calls are given as the source filed them. No cut-off for these calls is given here.

Legend:
Staphylococcus aureus [1] = assay: Antibacterial activity against vancomycin-intermediate resistant Staphylococcus aureus ATCC 700699/Mu50 assessed as reduction in bacterial growth incubated for 24 hrs by broth microdilution method; assay type: functional
Streptococcus pyogenes = assay: Antibacterial activity against Streptococcus pyogenes ATCC 12204 assessed as reduction in bacterial growth incubated for 24 hrs by broth microdilution method; assay type: functional
Enterococcus faecium [2] = assay: Antibacterial activity against clinical isolate Enterococcus faecium assessed as reduction in bacterial growth incubated for 24 hrs by broth microdilution method; assay type: functional
Klebsiella pneumoniae = assay: Antibacterial activity against Klebsiella pneumoniae ATCC 13883 assessed as reduction in bacterial growth incubated for 24 hrs by broth microdilution method; assay type: functional
Acinetobacter baumannii = assay: Antibacterial activity against Acinetobacter baumannii ATCC 19606 assessed as reduction in bacterial growth incubated for 24 hrs by broth microdilution method; assay type: functional
Pseudomonas aeruginosa [3] = assay: Antibacterial activity against Pseudomonas aeruginosa ATCC 47085 assessed as reduction in bacterial growth incubated for 24 hrs by broth microdilution method; assay type: functional
Pseudomonas aeruginosa [4] = assay: Antibiofilm activity against Pseudomonas aeruginosa ATCC 47085 at 8 to 16 ug/ml measured after 24 hrs by crystal violet staining based analysis; assay type: functional, organism-based; conditions: dose 8-16 µg/ml
Enterococcus faecium [5] = assay: Antibiofilm activity against Enterococcus faecium clinical isolate at 1/8 times MIC measured after 24 hrs by crystal violet staining based analysis; assay type: functional, organism-based
Staphylococcus aureus [6] = assay: Antibiofilm activity against vancomycin-intermediate resistant Staphylococcus aureus ATCC 700699/Mu50 at 1/8 time MIC measured after 24 hrs by crystal violet staining based analysis; assay type: functional, organism-based
Enterococcus faecium [7] = assay: Antibiofilm activity against Enterococcus faecium clinical isolate at sub-MIC doses measured after 24 hrs by crystal violet staining based analysis; assay type: functional
Staphylococcus aureus [8] = assay: Antibiofilm activity against vancomycin-intermediate resistant Staphylococcus aureus ATCC 700699/Mu50 at sub-MIC doses measured after 24 hrs by crystal violet staining based analysis; assay type: functional
Pseudomonas aeruginosa [9] = assay: Antibiofilm activity against Pseudomonas aeruginosa ATCC 47085 at sub-MIC doses measured after 24 hrs by crystal violet staining based analysis; assay type: functional

Compound	MIC (Staphylococcus aureus [1]) [µg/mL]	MIC (Streptococcus pyogenes) [µg/mL]	MIC (Enterococcus faecium [2]) [µg/mL]	MIC (Klebsiella pneumoniae) [µg/mL]	MIC (Acinetobacter baumannii) [µg/mL]	MIC (Pseudomonas aeruginosa [3]) [µg/mL]	Activity (Pseudomonas aeruginosa [4])	Activity (Enterococcus faecium [5])	Activity (Staphylococcus aureus [6])	Activity (Enterococcus faecium [7])	Activity (Staphylococcus aureus [8])	Activity (Pseudomonas aeruginosa [9])
Oc1c(Br)cc(C(F)(F)F)cc1-c1csc(-c2cc(Br)c(Br)[nH]2)n1	1 (≈ 1.83 µM)	0.5 (≈ 0.914 µM)	2 (≈ 3.66 µM)									
O=[N+]([O-])c1cc(-c2nc(-c3cc(C(F)(F)F)cc(Br)c3O)cs2)[nH]n1	8 (≈ 18.4 µM)	4 (≈ 9.19 µM)	> 256									
O=[N+]([O-])c1cc(-c2nc(-c3cc(Cl)cc(Cl)c3O)cs2)[nH]n1	128 (≈ 358 µM)	8 (≈ 22.4 µM)	> 256									
Oc1c(Cl)cc(Cl)cc1-c1csc(-c2[nH]c(Br)c(Br)c2Br)n1	> 256	0.25 (≈ 0.456 µM)	0.5 (≈ 0.913 µM)	> 256	> 256	> 256						
Oc1c(Br)cc(Br)cc1-c1csc(-c2cc(Cl)c(Cl)[nH]2)n1	> 256	> 256	> 256									
O=[N+]([O-])c1cc(-c2nc(-c3cc(Br)cc(Br)c3O)cs2)[nH]n1	8 (≈ 17.9 µM)	2 (≈ 4.48 µM)	16 (≈ 35.9 µM)	> 256	> 256	> 256	Active	Active	Active	>60%	>60%	>60%
COc1ccc(O)c(-c2csc(-c3cc(Cl)c(Cl)[nH]3)n2)c1	> 256	> 256	> 256									
O=[N+]([O-])c1ccc(O)c(-c2csc(-c3cc(Cl)c(Cl)[nH]3)n2)c1	> 256	32 (≈ 89.8 µM)	> 256									
Oc1c(Br)cc(C(F)(F)F)cc1-c1csc(-c2cc(C(F)(F)F)n[nH]2)n1	8 (≈ 17.5 µM)	16 (≈ 34.9 µM)	8 (≈ 17.5 µM)									
Oc1c(Br)cc(C(F)(F)F)cc1-c1csc(-c2cc(Cl)c(Cl)[nH]2)n1	1 (≈ 2.18 µM)	≤ 0.125	> 256									
POLYMYXIN B				2	2	4				inactive	inactive	inactive
Oc1c(Br)cc(Br)cc1-c1csc(-c2cc(C(F)(F)F)n[nH]2)n1	2 (≈ 4.26 µM)	4 (≈ 8.53 µM)	4 (≈ 8.53 µM)	> 256	> 256	> 256	Active	Active	Active	>60%	>60%	>60%
Oc1c(Cl)cc(Cl)cc1-c1csc(-c2cc(C(F)(F)F)n[nH]2)n1	4 (≈ 10.5 µM)	4 (≈ 10.5 µM)	4 (≈ 10.5 µM)	> 256	> 256	> 256	Active	Active	Active	>60%	>60%	>60%
